Experimental data: PMC4297543 (Bioorganic & medicinal chemistry letters, 2014)

Target: recombinant β-secretase (Homo sapiens, UniProt P56817)
Test: β-secretase
Assay type: biochemical

Chain of recombinant β-secretase (P56817 46-501): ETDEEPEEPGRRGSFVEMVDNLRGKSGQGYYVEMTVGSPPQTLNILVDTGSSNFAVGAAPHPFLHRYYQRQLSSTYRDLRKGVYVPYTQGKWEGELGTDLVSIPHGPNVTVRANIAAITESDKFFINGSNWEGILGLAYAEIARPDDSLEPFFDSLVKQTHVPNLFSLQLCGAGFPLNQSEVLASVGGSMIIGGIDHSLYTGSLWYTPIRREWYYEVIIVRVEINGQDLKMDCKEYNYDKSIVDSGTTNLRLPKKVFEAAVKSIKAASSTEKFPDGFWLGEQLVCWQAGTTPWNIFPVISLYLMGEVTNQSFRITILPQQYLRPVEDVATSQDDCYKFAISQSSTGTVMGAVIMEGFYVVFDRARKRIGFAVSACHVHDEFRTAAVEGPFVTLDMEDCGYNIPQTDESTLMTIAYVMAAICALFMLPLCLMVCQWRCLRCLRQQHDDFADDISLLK

| SMILES | improvement over inhibitor 4a (ratio of BACE1 potency to that of 4a) | drop in potency with respect to 3a (ratio of BACE1 Ki to that of 3a) [fold] |
| --- | --- | --- |
| Cc1csc(C[C@H](C)C(=O)N[C@@H](CNC(=O)OC(C)(C)C)C(=O)N[C@@H](CC(C)C)[C@@H](O)C[C@@H](C)C(=O)N[C@H](C(=O)NCC(C)C)C(C)C)n1 [Inhibitor 4c] | over 120 fold |  |
| Cc1cc(C)n(C[C@@H](C)C(=O)N[C@@H](CNC(=O)OC(C)(C)C)C(=O)N[C@@H](CC(C)C)[C@@H](O)C[C@@H](C)C(=O)N[C@H](C(=O)NCC(C)C)C(C)C)n1 [Inhibitor 3b] |  | ~40 |
